Assay results as given in patent US20040001845A1, “Cytotoxic T-cell epitopes of HIV-1 virus” (priority 2002, published 2004).
Where two headings read alike, the source gives them in different places.

Key:
HLA-A11 = assay: Association of peptides with HLA allele A11 (recognition by individuals expressing HLA-A11); format: cell-based, human
[1] = tested on: PBMC (HIV-1-specific CD8+ T cells) of subject AC-06; assay: IFN-γ Elispot assay of HIV-1-specific CD8+ T cell responses in subject AC-06; format: cell-based, human
[2] = subject AC-06, 0 months after infection
[3] = subject AC-06, 2 months after infection
[4] = subject AC-06, 6 months after infection
[5] = subject AC-06, 12 months after infection
[6] = subject AC-06, 18 months after infection
[7] = subject AC-06, 20 months after infection
[8] = subject AC-06, 24 months after infection
[9] = subject AC-06, 29.5 months after infection
[10] = subject AC-06, 34 months after infection

| Sequence | HLA (association with HLA allele A11; recognized by individuals expressing HLA-A11) (HLA-A11) | HLA (association with HLA allele A11; recognized by individuals expressing HLA-A11) (HLA-A11; listed as SEQ ID NO: 8) | magnitude of HIV-1-specific CD8+ T cell responses at the single epitope level [1, 2] [SFC/Million PBMC] | magnitude of HIV-1-specific CD8+ T cell responses at the single epitope level [1, 3] [SFC/Million PBMC] | magnitude of HIV-1-specific CD8+ T cell responses at the single epitope level [1, 4] [SFC/Million PBMC] | magnitude of HIV-1-specific CD8+ T cell responses at the single epitope level [1, 5] [SFC/Million PBMC] | magnitude of HIV-1-specific CD8+ T cell responses at the single epitope level [1, 6] [SFC/Million PBMC] | magnitude of HIV-1-specific CD8+ T cell responses at the single epitope level [1, 7] [SFC/Million PBMC] | magnitude of HIV-1-specific CD8+ T cell responses at the single epitope level [1, 8] [SFC/Million PBMC] | magnitude of HIV-1-specific CD8+ T cell responses at the single epitope level [1, 9] [SFC/Million PBMC] | magnitude of HIV-1-specific CD8+ T cell responses at the single epitope level [1, 10] [SFC/Million PBMC] | HLA (association with HLA allele A11; recognized by individuals expressing HLA-A11) (HLA-A11; listed as SEQ ID NO: 6) | HLA (association with HLA allele A11; recognized by individuals expressing HLA-A11) (HLA-A11; listed as SEQ ID NO: 5) | HLA (association with HLA allele A11; recognized by individuals expressing HLA-A11) (HLA-A11; listed as SEQ ID NO: 11) |
| --- | --- | --- | --- | --- | --- | --- | --- | --- | --- | --- | --- | --- | --- | --- |
| AVFIHNFKRK [A3-AK10] | All | recognized | 0 | 0 | 0 | 0 | 0 | 0 | 0 | 260 | 120 | – | – | – |
| QIYPGIKVR [A3-QR9] | All | – | 0 | 0 | 0 | 0 | 0 | 760 | 1000 | 1200 | 840 | recognized | – | – |
| HPRVSSEVHI [B7-HI10] | – | – | 0 | 0 | 0 | 0 | 0 | 500 | 880 | 1800 | 1800 | – | – | – |
| AIFQSSMTK [A3-ATK9] | All | – | 0 | 0 | 0 | 0 | 0 | 0 | 0 | 290 | 420 | – | recognized | – |
| AVDLSHFLK [A3-ALK9] | All | – | 0 | 0 | 0 | 0 | 0 | 450 | 350 | 1200 | 1100 | – | – | recognized |
| ERILSTYLGR [A3-ER10] | – | – | 0 | 0 | 0 | 0 | 0 | 0 | 310 | 460 | 1300 | – | – | – |
| SPAIFQSSM [B7-SM9] | – | – | 0 | 0 | 0 | 0 | 0 | 90 | 130 | 1400 | 1000 | – | – | – |
| KLVDFRELNK [A3-KK10] | – | – | 0 | 0 | 0 | 0 | 0 | 0 | 70 | 1200 | 1800 | – | – | – |
| HMYISKKAK [A3-HK9] | – | – | 0 | 0 | 0 | 0 | 0 | 110 | 320 | 1000 | 1600 | – | – | – |
| HPVHAGPIA [B7-HA9] | – | – | 0 | 0 | 0 | 0 | 0 | 0 | 0 | 700 | 360 | – | – | – |
| RIRTWKSLVK [A3-RK10] | – | – | 0 | 0 | 0 | 0 | 0 | 180 | 270 | 1100 | 1600 | – | – | – |
| SPRTLNAWV [B7-SV9] | – | – | 0 | 0 | 0 | 0 | 0 | 0 | 0 | 680 | 120 | – | – | – |
